According to patent publication US8188059B2, “Compounds and methods for modulating expression of GCGR” (Isis Pharmaceuticals, Inc., priority 2006, dated 2012):
Strand notation (5' to 3'): a small letter for the sugar, then the base; units joined by * are phosphorothioate-linked, units joined directly phosphodiester-linked; [ ] holds rarer units or linkages, { } end groups; capitals alone tell only the bases. e = 2'-O-(2-methoxyethyl) (MOE); [5mC] = 5-methylcytosine; d = 2'-deoxy (DNA)

Key:
rat DGAT2 mRNA [1] = test: Dose-dependent inhibition of DGAT2 in A10 cells, 0.62-150 nM (Example 22, Table 83); type: cell-based
Method: Additional short antisense compounds targeted to DGAT2 mRNA were tested in vitro. A10 cells were prepared as described above and treated with 0.62, 1.85, 5.56, 16.67, 50.0, and 150.0 nM short antisense compounds to determine if DGAT2 inhibition occurs in a dose-dependent manner. DGAT2 mRNA was measured using quantitative real-time PCR, as described herein. […] Results are presented as percent inhibition of rat DGAT2, relative to untreated control cells.

DGAT2 mRNA = test: Antisense inhibition of DGAT2 in A10 cells at 75 nM (Example 22, Table 81); type: cell-based, rat; conditions: approximately 24 hours
Method: Short antisense compounds targeted to a DGAT2 nucleic acid were tested for their effects on DGAT2 mRNA in vitro. Cultured A10 cells in a 96-well plate were treated with 75 nM of short antisense compound. After a treatment period of approximately 24 hours, RNA was isolated from the cells and DGAT2 mRNA levels were measured by quantitative real-time PCR, as described herein. DGAT2 mRNA levels were adjusted according to total RNA content as measured by RIBOGREEN®. […]

rat DGAT2 mRNA [2] = test: Dose-dependent inhibition of DGAT2 in A10 cells, 6.25-200 nM (Example 22, Table 82); type: cell-based
Method: Additional short antisense compounds targeted to DGAT2 mRNA were tested in vitro in a dose-response experiment. A10 cells were prepared as described above and treated with 6.25, 12.5, 25.0, 50.0, 100.0, and 200.0 nM short antisense compounds to determine if DGAT2 inhibition occurs in a dose-dependent manner. […] Results are presented as percent inhibition, relative to untreated control cells.

rat SGLT2 mRNA = test: Rat SGLT2 mRNA levels in kidney, 1-10-1 and 1-10-2 MOE gapmers, Sprague-Dawley rats (Example 13, Table 63); type: in vivo
Excerpt: 1-10-1 and 1-10-2 MOE gapmer antisense compounds, provided in Table 62, were designed to target different regions of the mouse or rat SGLT2 RNA. All short antisense compounds in Table 62 are chimeric oligonucleotides (“gapmers”) either 12 or 13 nucleotides in length, composed of a central “gap” segment consisting of ten 2′-deoxynucleotides, which are flanked on the 5′ side by a one-nucleoside “wing” and on the 3′ side by a two or one-nucleotide “wing”. […] All cytidine residues are 5-methylcytidines.
The short antisense compounds were analyzed for their effect on rat SGLT2 mRNA levels. Data are ranges taken from three experiments in which Male Sprague-Dawley rats (170-200 g) were dosed twice per week for three weeks with 450, 150 or 50 nmol/kg of either a 1-10-1 or 1-10-2 MOE gapmer given by intraperitoneal injection. Rats were sacrificed 48 hours following last administration and evaluated for SGLT2 mRNA levels in kidney. Target levels were determined by RT, real-time PCR as described by other examples herein. PCR results were normalized to an internal ISIS control.

[3] = 50 nmol/kg i.p. twice per week for three weeks
[4] = 150 nmol/kg i.p. twice per week for three weeks
[5] = 450 nmol/kg i.p. twice per week for three weeks

Substance | percent inhibition of rat DGAT2 (rat DGAT2 mRNA [1]; 0.62 nM) | percent inhibition of rat DGAT2 (rat DGAT2 mRNA [1]; 1.85 nM) | percent inhibition of rat DGAT2 (rat DGAT2 mRNA [1]; 5.56 nM) | percent inhibition of rat DGAT2 (rat DGAT2 mRNA [1]; 16.67 nM) | percent inhibition of rat DGAT2 (rat DGAT2 mRNA [1]; 50 nM) | percent inhibition of rat DGAT2 (rat DGAT2 mRNA [1]; 150 nM) | DGAT2 mRNA, % Control (DGAT2 mRNA) | percent inhibition of DGAT2 (rat DGAT2 mRNA [2]; 6.25 nM) | percent inhibition of DGAT2 (rat DGAT2 mRNA [2]; 12.5 nM) | percent inhibition of DGAT2 (rat DGAT2 mRNA [2]; 50.0 nM) | percent inhibition of DGAT2 (rat DGAT2 mRNA [2]; 100.0 nM) | percent inhibition of DGAT2 (rat DGAT2 mRNA [2]; 200.0 nM) | percent inhibition of DGAT2 (rat DGAT2 mRNA [2]; […]) | % change in SGLT2 expression relative to saline (rat SGLT2 mRNA; [3]) | % change in SGLT2 expression relative to saline (rat SGLT2 mRNA; [4]) | % change in SGLT2 expression relative to saline (rat SGLT2 mRNA; [5])
372524 (antisense eG*e[5mC]*e[5mC]*dA*dG*dG*d[5mC]*dA*dT*dG*dG*dA*dG*e[5mC]*eT*e[5mC]) [compound 372524] | 7 | 0 | 5 | 30 | 68 | 91 | 21% | – | – | – | – | – | – | – | – | –
372530 (antisense eT*e[5mC]*eG*dG*d[5mC]*d[5mC]*d[5mC]*d[5mC]*dA*dG*dG*dA*dG*e[5mC]*e[5mC]*e[5mC]) [compound 372530] | 0 | 2 | 0 | 10 | 38 | 78 | 35% | – | – | – | – | – | – | – | – | –
372546 (antisense eT*eT*eG*dG*dT*d[5mC]*dT*dT*dG*dT*dG*dA*dT*eT*eG*eT) [compound 372546] | 0 | 2 | 11 | 4 | 48 | 78 | 34% | – | – | – | – | – | – | – | – | –
372563 (antisense eA*eG*d[5mC]*d[5mC]*dA*dG*dG*dT*dG*dA*d[5mC]*dA*eG*eA) [compound 372563] | 0 | 0 | 0 | 1 | 4 | 46 | 48% | – | – | – | – | – | – | – | – | –
372578 (antisense eT*eG*dT*dG*dT*d[5mC]*dT*dT*d[5mC]*dA*d[5mC]*d[5mC]*eA*eG) [compound 372578] | 0 | 0 | 0 | 2 | 7 | 42 | 59% | – | – | – | – | – | – | – | – | –
372580 (antisense eG*eG*dT*dT*dG*dT*dG*dT*dG*dT*d[5mC]*dT*eT*e[5mC]) [compound 372580] | 0 | 5 | 5 | 3 | 16 | 42 | 48% | – | – | – | – | – | – | – | – | –
372586 (antisense eG*eT*dT*d[5mC]*d[5mC]*dT*dG*dG*dT*dG*dG*dT*e[5mC]*eA) [compound 372586] | 0 | 0 | 0 | 0 | 7 | 55 | 40% | 19 | 0 | 22 | 45 | 77 | 7 | – | – | –
372594 (antisense eA*e[5mC]*dA*dG*dA*dA*dG*dG*d[5mC]*dA*d[5mC]*d[5mC]*e[5mC]*eA) [compound 372594] | 0 | 0 | 0 | 0 | 2 | 15 | 77% | – | – | – | – | – | – | – | – | –
372602 (antisense e[5mC]*e[5mC]*dA*dG*dG*d[5mC]*dA*dT*dG*dG*dA*dG*e[5mC]*eT) [compound 372602] | 0 | 0 | 10 | 0 | 19 | 51 | 39% | 0 | 0 | 18 | 47 | 76 | 0 | – | – | –
372618 (antisense eG*eT*dG*dG*dT*dA*d[5mC]*dA*dG*dG*dT*d[5mC]*eG*eA) [compound 372618] | 0 | 0 | 0 | 0 | 30 | 60 | 29% | 0 | 5 | 27 | 65 | 80 | 0 | – | – | –
372624 (antisense eT*eG*dG*dT*d[5mC]*dT*dT*dG*dT*dG*dA*dT*eT*eG) [compound 372624] | 0 | 0 | 0 | 1 | 16 | 38 | 56% | – | – | – | – | – | – | – | – | –
ISIS 382675 (antisense eT*dA*dG*d[5mC]*d[5mC]*dA*d[5mC]*d[5mC]*dA*dA*d[5mC]*eT*eG) | – | – | – | – | – | – | – | – | – | – | – | – | – | −50% | −65% | −80%
ISIS 382677: SGLT2; GGCATGAGCTTCA 1-10-2 MOE (antisense eG*dG*d[5mC]*dA*dT*dG*dA*dG*d[5mC]*dT*dT*e[5mC]*eA) | – | – | – | – | – | – | – | – | – | – | – | – | – | −40% | −60% | −75%
